# Assay results reported in PubChem BioAssay AID652167 (The Scripps Research Institute Molecular Screening Center, 2013).
# The source made the active and inactive calls. No rule for the calls is given here.
# Key:
# [1] = cytotoxicity by WST viability readout, late-stage follow-up, cytotoxicity control for NOD2-RIPK2 interaction inhibitor project, cell-based, absorbance (AID 652167); conditions: WST cytotoxicity, absorbance 620 nm; WST absorbance; at 10 µM; stronger effect = lower value
# [2] = tested on: WST cytotoxicity, absorbance 620 nm; experiment: as above
Compound,absorbance [1],IC50 [2]
COc1ccc(C(C[N+](=O)[O-])n2nc(C)cc2C)cc1 (configuration not stated),0.973,> 10 µM (inactive)
O=S(=O)(c1ccccc1)N1CCCCCC1,0.969,> 10 µM (inactive)
Cc1nc([N+](=O)[O-])c(Br)n1Cc1ccc(Cl)c(Cl)c1,0.974,> 10 µM (inactive)
Cc1cc(S(=O)(=O)N2CCCCCC2)ccc1F,1,> 10 µM (inactive)
Cc1ccc(C(C[N+](=O)[O-])n2nc(C)cc2C)cc1 (configuration not stated),0.968,> 10 µM (inactive)
Cc1ncc([N+](=O)[O-])n1Cc1ccc(Cl)c(Cl)c1,1.01,> 10 µM (inactive)
O=S(=O)(c1ccc(F)cc1)N1CCCCCC1,1,> 10 µM (inactive)
Cc1nc([N+](=O)[O-])c(Br)n1Cc1ccccc1,0.991,> 10 µM (inactive)
O=[N+]([O-])c1cc(S(=O)(=O)N2CCCCCC2)ccc1F,0.991,> 10 µM (inactive)
Cc1ccc(S(=O)(=O)N2CCCCCC2)cc1[N+](=O)[O-],0.99,> 10 µM (inactive)
O=[N+]([O-])c1cccc(S(=O)(=O)N2CCCCCC2)c1,0.999,> 10 µM (inactive)
